Data: patent publication US20210195924A1, “PHOTODYNAMIC INACTIVATION METHOD OF SALMONELLA” (SHANGHAI OCEAN UNIVERSITY, priority 2019, published 2021)

How the values were obtained:
[1] = tested on: Salmonella typhimurium CICC 21484 and Salmonella enteritidis CMCC 50041; test: Riboflavin-mediated photodynamic inactivation of Salmonella in bacterial solution (455-460 nm LED blue light, plate count); type: cell-based
[2] = tested on: Salmonella on contaminated egg shells; test: Salmonella inactivation experiment for fresh egg shells; type: cell-based
Procedure: Sterile egg shells were mixed with a Salmonella bacterial solution to be contaminated and divided into three groups as follows: 1, a single photosensitizer group with riboflavin concentration of 150 μmol/L, was subjected to the dark incubation for 40 min without the illumination of a blue light source; 2, a photodynamic experiment group with riboflavin concentration of 150 μmol/L, was subjected to the dark incubation for 40 min under the illumination of the blue light source for 40 min; and 3, a blank reference group with a saline solution having a volume equal to that of the riboflavin solution. Each group was provided with two parallel groups.
Bacteria culture: under a sterile condition, each group of egg shells was diluted with the saline solution for two times and then homogenized by a sterile homogenizing device and diluted. 100 μL diluent with appropriate dilution degrees was inoculated into the TSA solid culture medium and cultured for 24 to 48 h in the thermostatic incubator at 37° C. The number of bacterial colonies in each group was counted.

[3] = tested on: vesicular stomatitis virus; settings: ultraviolet radiation; riboflavin 300 μmol/L; under 10 minutes; cited from earlier work
[4] = tested on: Staphylococcus aureus; settings: Gram-positive bacteria Staphylococcus aureus; cited from earlier work
[5] = tested on: Escherichia coli; settings: Gram-negative bacteria Escherichia coli; cited from earlier work

Compound	amount of Salmonella reduced ([1]; riboflavin 100 μmol/L, incubation time 40 min, illumination time 30 min, initial inoculation about 4.5×10^6 CFU/mL) [Log CFU/mL]	lethality (fatality rate) of Salmonella ([1]; riboflavin 150 μmol/L, dark incubation 40 min, illumination 30 min) [%]	fatality rate of Salmonella ([1]; riboflavin 150 μmol/L, dark incubation 40 min, illumination time 40 min) [%]	lethality (fatality rate) of Salmonella ([1]; riboflavin 150 μmol/L, dark incubation 40 min, no blue light (illumination 0 min))	amount of Salmonella reduced ([1]; riboflavin 150 μmol/L, incubation 40 min, illumination time 20 min, initial inoculation about 6.75 Log CFU/mL) [Log CFU/mL]	amount of Salmonella reduced ([1]; riboflavin 150 μmol/L, incubation 40 min, illumination time 30 min, initial inoculation about 6.75 Log CFU/mL (Embodiment 3)) [Log CFU/mL]	amount of Salmonella reduced ([1]; riboflavin 150 μmol/L, incubation 40 min, illumination time 40 min, initial inoculation about 6.75 Log CFU/mL) [Log CFU/mL]	amount of Salmonella reduced ([1]; riboflavin 150 μmol/L, incubation 40 min, illumination time 50 min, initial inoculation about 6.75 Log CFU/mL) [Log CFU/mL]	amount of Salmonella reduced ([1]; riboflavin 150 μmol/L, incubation time 40 min, illumination time 30 min, initial inoculation about 4.5×10^6 CFU/mL (Embodiment 1)) [Log CFU/mL]	lethality of Salmonella ([1]; riboflavin 200 μmol/L, dark incubation 40 min, illumination 30 min) [%]	amount of Salmonella reduced ([1]; riboflavin 200 μmol/L, incubation time 40 min, illumination time 30 min, initial inoculation about 4.5×10^6 CFU/mL) [Log CFU/mL]	lethality of Salmonella ([1]; riboflavin concentration increased beyond 200 μmol/L, dark incubation 40 min, illumination 30 min)	sterilization rate ([2]; egg shells, photodynamic inactivation with riboflavin as photosensitizer, multiple experiments) [%]	number of bacterial colonies in the egg shells after the PDI treatment ([2]; riboflavin 150 μmol/L, dark incubation 40 min, blue light 40 min, blank reference group 7.4×10^5 CFU/g)	number of bacterial colonies in the egg shells of the single photosensitizer group ([2]; riboflavin 150 μmol/L, dark incubation 40 min, no blue light, blank reference group 7.4×10^5 CFU/g)	virus killing [3]	photodynamic inactivation effect [4]	influence on growth [5]
Cc1cc2nc3c(=O)[nH]c(=O)nc-3n(C[C@H](O)[C@H](O)[C@H](O)CO)c2cc1C [riboflavin]	1.12	100	100	extremely low	2.23	6.21	6.75	6.75	6.14	100	6.21	apparently decreased	99.88	8.4×10^2 CFU/g	7.0×10^5 CFU/g	killed		
chlorophyllin ester																	significant photodynamic inactivation effect	no influence on the growth
